Test results: patent US6900318B1, “1,4,5,6-tetrahydropyrimidine derivative as a vitronectin inhibitor” (Aventis Pharma Deutscland GmbH, priority 1999, dated 2005)

Tested on: thyroparathyroidectomized (TPTX) rats
Assay: PTH-induced hypercalcemia in the TPTX rat model of bone resorption
Format: in vivo
Conditions: PTH treated TPTX male Sprague Dawley rats; perorally twice at 10 mg/kg (time 0 and 3 h after start of PTH infusion); serum at 6 hours
Source text: 9) Pharmacological Testing: PTH-Induced Hypercalcemia in the TPTX Rat Model of Bone Resorption
In this in vivo model a stimulation of bone resorption is induced in thyroparathyroidectomized (TPTX) rats by the infusion of parathyroid hormone (PTH). The changes in bone resorption are monitored by measuring the serum calcium concentration which is directly related to the extent of bone resorption.
Male Sprague Dawley rats (OFA-IFFA CREDO, France) weighting 150-200 g were thyroparathyroidectomized by the supplier. The rats were allowed free access to a standard commercial pelleted diet containing 7 g Ca/kg (UAR) and Eau de Volvic water. The success of thyroparathyroidectomy was tested by measuring serum calcium concentrations 8 days after operation in overnight fasted animals. Rats were considered as TPTX when the serum calcium level was <80 mg/l.
For treatment with PTH, rat PTH(1-34) (Bachem) was dissolved in 0.15 M sodium chloride solution containing 2% Cys-HCl and delivered via osmotic minipumps (ALZET 2001 D) at 200 pmol/kg/h. […]
Serum total calcium concentrations (=calcemia) were measured […] (Ciba-Corning) using a IEMS Labsystems microplate reader at 540 nm. The differences between the mean values of calcemia in the groups were analysed for variance and by Dunnett's test. The activity of the test compound was calculated as % effect according to the formula: [formula]

CCOC(=O)[C@H](CNC(=O)c1ccc(CCC(=O)NC2=NCCCN2)cc1)NS(=O)(=O)c1cccc2ccccc12.O=C(O)/C=C/C(=O)O [compound of formula I, ethyl (2S)-2-(naphthalene-1-sulfonylamino)-3-(4-(2-(1,4,5,6-tetrahydropyrimidin-2-ylcarbamoyl)ethyl)benzoylamino)propionate hemifumarate]
% effect on serum total calcium concentration (calcemia): −45%
